Experimental data reported in patent publication US5622933A, “Multiple branch peptide constructions for use against HIV” (priority 1993, dated 1997).
Ends that are not written are not given here.

Key:
[1] = tested on: CEM or C8166 cells; settings: concentrations of 10^-7 to 10^-4 M; cultured continuously (15 days)
Description: An MTT assay, a colorimetric cell viability assay using 3-[4,5-Dimethylthiazol-2-yl] 2,5-diphenyltetrazolium bromide, was used to assess the effect of MBPCs on cell viability. CEM or C8166 cells (5×10^4) were cultured continuously (15 days) in the presence of various concentrations of MBPCs in the wells of 96-well microtiter plates in 200 μl final volume of RPMI 1640 medium supplemented with 5% fetal calf serum, 1% glutamine, 1% streptomycin-penicillin (available from Gibco of Irvine, Scotland) in a humidified atmosphere with 5% CO2. Every 3 to 4 days, an MTT assay was performed on 100 μl of cells suspension and MBPC were added to cell culture and the volume completed to 200 μl.

[2] = tested on: HIV; test: Infection of HT-29 human colon cells through the GalCer receptor; format: cell-based
Description: The activity of MBPCs was evaluated on this alternative infection route as follows: HT-29 cells (5×10^5 cells) were incubated with MBPCs (5×10^-6 M) for 45 minutes and subsequently exposed to 100 TCID50 of HIV-1 (LAI), HIV-1 (NDK) or HIV-2 (ROD) for 1 hour at 37° C. The residual inoculum was inactivated by three successive trypsinations and infection was assessed by: i) direct measurement of HIV-1 p24^gag (for HIV-1 isolates) and RT activity (for HIV-1 and HIV-2 isolates) in the culture supernatants; ii) co-cultivation with human PBLs. The cells were treated with the MBPCs as follows: 1- none; 2- [GPGRAF]8 -MLC; 3- [GPGRAF]8 -MLCD; 4- [GPG(R)DAF]8 -MLC; 5- [GPGRAF]16 -MLC; 6- [[…]]4 -MLC; and 7- [[…]]4 -MLC, with all amino acids in L form unless noted otherwise. The results shown in FIG. 5A, which correspond to infection with HIV-1 (NDK), are representative of three separate experiments and the MBPC used is indicated by the number on the x-axis. The concentration of p24^gag (pg/ml) was measured during the co-culture experiment with PBLs (+++, >10 ng/ml 10 days post-infection; ++, >1 ng/ml 13 days post-infection; +, >1 ng/ml 16 days post-infection; -, no detectable p24^gag 1 month post-infection). Similar results were obtained with HIV-1 (LAI) and HIV-2 (ROD).

[3] = tested on: GalCer receptor; test: Binding of gp120 to GalCer (HPTLC binding assay)
Description: In another experiment with the same MBPCs, the effect of MBPCs on the binding of gp120 to GalCer was analyzed using a high performance thin layer chromatography (HPTLC) binding assay. MBPCs (10^-4 M) were preincubated with GalCer for 1 hour at room temperature. After thorough washing, the HPTLC plates were incubated with HIV-1 recombinant gp120 (2.5 ug/ml) followed by rabbit anti-gp120 and ^125 I-goat anti-rabbit IgG. The plates were washed in PBS and exposed to Amersham Hyperfilm MP for 8 hours. As shown in FIG. 5B treatment of HT-29 cells with active MBPCs protected the cells from infection by HIV-1 (NDK isolate). This antiviral effect was correlated with its ability to block the binding of gp120 to GalCer.

[4] = tested on: HIV-2; test: Infection of human PBLs; format: cell-based; settings: MBPC 10^-5 M
Description: Peripheral blood lymphocytes (PBLs) were obtained from healthy donors, stimulated with phytohemagglutinin, and cultivated in RPMI 1640 containing 10% fetal calf serum and interleukin-2 (complete medium). Samples of 6×10^6 cells/ml were either treated or not treated with the indicated MBPC at a concentration of 10^-5 M and exposed to HIV-1 or HIV-2 (100 TCID50) for 1 hour at 37° C. in the continued presence of MBPCs. After thorough washing, PBLs were cultured in complete medium with 10^-5 M of the corresponding MBPC. The state of infection was assessed by determination of RT activity (for both HIV-1 and HIV-2 isolates) and HIV-1 p24^gag measurements (Coulter kit, cut-off 10 pg/ml) in the case of HIV-1 isolates 10 days post-infection. The MBPC treatment used were as follows: 1-none; 2- [GPGRAF]8 -MLC; 3-[[…]]4 -MLC; 4- [[…]]4 -MLC (a non-HIV related MBPC) (MLC indicates a core lysine structure). The results shown in FIGS. 2A-2C are representative of three separate experiments. The nature of the viral isolates used was checked by PCR (HIV-1 versus HIV-2 isolates) and RIPA for discriminating between HIV-1 (LAI) and HIV-1 (NDK).

| Substance | toxicity to cells (MTT assay) [1] | block of the infectivity of HIV on human colon cells [2] | binding to / activity on the Galactosyl Ceramide receptor [3] | potency for inhibition of HIV-2 infection, in words [4] |
| --- | --- | --- | --- | --- |
| (GPGRAF)8 -(K)4 -(K)2 -K-βA-OH [MBPC.3] | not toxic | completely block | bind to the second receptor | – |
| (RKSIHIGPGRAFYT)4 -(K)2 -K-βA-OH (also: four copies on lysine core (K)2-K-βA-OH) [MBPC.5, tetradecapeptide MBPC] | – | – | – | less potent than [GPGRAF]8 -MLC |
